# Experimental data from patent publication US20250313546A1, “NUCLEIC ACID BINDERS” (UNIVERSITY OF STRATHCLYDE, priority 2022, published 2025).
# Assays:
# [1] = tested on: Influenza (H1N1); assay: Accelerated Viral Neuraminidase Inhibition Assay (AVINA), A549 cells; format: cell-based; conditions: Influenza A virus, 72 h
# [2] = tested on: T. vaginalis; assay: Trichomonas resorufin assay; format: cell-based; conditions: for T. vaginalis Selectivity Indices, Group / T. vaginalis Selectivity Index (SI): SI, IC50 (μM)/IC50 (μM), HEK293 cytotoxicity; for T. vaginalis Selectivity Index (SI): numeric value; for IC50: Trichomonas vaginalis, read-out: IC50 T. vaginalis
# [3] = tested on: Genomic double stranded DNA (salmon); assay: Fluorescence intercalator displacement (FID) assay, SYBR-safe probe; conditions: 20 μM compound, 30° C., lower % = stronger binding
# Summary of the method: (§1)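 Compound at 20 μM mixed with 3.76 ng/mL polyAU dsRNA or salmon genomic dsDNA and 12500-fold diluted SybrSafe in 1 mM phosphate buffer pH 7.4, then heated to 30 °C and fluorescence read. Reduction is expressed as normalised %, with nucleic acid plus probe as maximum and probe alone as minimum.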
# [4] = tested on: PolyAU double stranded RNA; assay: as above; conditions: 20 μM compound, 30° C., lower % = stronger binding
# Summary of the method: as §1
# [5] = tested on: C. neoformans (F10025); conditions: Cryptococcus neoformans, read-out: MIC99 C. neoformans
# [6] = tested on: Enterococcus faecalis (ATCC 51299); assay: Antibacterial MIC, broth microdilution (CLSI); format: cell-based; conditions: for MIC80: Enterococcus faecalis, ATCC51299, read-out: MIC80 E. faecalis; for E. faecalis Selectivity Indices, Group / E. faecalis Selectivity Index (SI): SI, IC50 (μM)/MIC80 (μM), HEK293 cytotoxicity; for E. faecalis Selectivity Indices, Group: Alkyl Amidines and NH Pyrroles; for E. faecalis Selectivity Index (SI): numeric value
# [7] = tested on: Staphylococcus aureus (ATCC 43300); assay: Antibacterial MIC, broth microdilution (CLSI); format: cell-based; conditions: for MIC80: Staphylococcus aureus, ATCC43300, read-out: MIC80 S. aureus; for S. aureus Selectivity Indices, Group: Alkyl Amidines and NH Pyrroles
# [8] = tested on: Escherichia coli (ATCC 25922); assay: Antibacterial MIC, broth microdilution (CLSI); format: cell-based; conditions: Escherichia coli, ATCC25922; read-out: MIC80 E. coli
# [9] = tested on: Candida glabrata (ACPF3309); conditions: for MIC99: Nakaseomyces glabratus, read-out: MIC99 Candida glabrata
# [10] = tested on: Candida auris (H.17.157); conditions: for MIC99: Candidozyma auris, read-out: MIC99 Candida auris; for C. auris Selectivity Indices, Group: Alkyl Amidines and NH Pyrroles
# Method: (§2) The Minimum Inhibitory Concentration (MIC, at 99% inhibition) of the compounds was determined using the broth microdilution method as recommended by EUCAST (EUCAST Definitive Document E.DEF 9.3.2, Method for the determination of broth dilution minimum inhibitory concentrations of antifungal agents for conidia forming moulds and EUCAST Definitive Document E.DEF 7.3.2 Method for the determination of broth dilution minimum inhibitory concentrations of antifungal agents for yeasts).
# [11] = tested on: human respiratory syncytial virus (RSV A2); assay: Viral ToxGlo assay, Hep-2 cells; format: cell-based; conditions: 72 h
# [12] = tested on: Rhizopus arrhizus (NEQAS12.35321); conditions: read-out: MIC99 Rhizopus arrhizus
# Method: as §2
# [13] = tested on: A. fumigatus A1160 (MFIG001); conditions: Aspergillus fumigatus, read-out: MIC99 A. fumigatus A1160
# [14] = tested on: Human rhinovirus (HRV-14); assay: Viral ToxGlo assay, Hela Ohio cells; format: cell-based; conditions: M-HeLa, 72 h
# [15] = tested on: SARS-CoV-2 (hCoV-19/Australia/VIC01/2020); assay: SARS-CoV-2 microplaque inhibition assay in Vero-E6 cells; format: cell-based; conditions: for IC50: Severe acute respiratory syndrome coronavirus 2, Vero C1008, plaque inhibition, Vero-E6 cells, read-out: IC50 SARS-CoV-2
# [16] = tested on: T. evansi AntTat 3/3; assay: Resazurin-based (Alamar blue) drug sensitivity assay; conditions: read-out: IC50 T. evansi
# Method: A detailed description of the procedure for evaluating activity against trypanosomes, using an Alamar Blue (resazurin) assay, is described below.
# The bloodstream form (BSF) T. b. brucei s427 (see De Koning, H. P. et al., Mol. Biochem. Parasitol. 2000, 106, 181-185), T. evansi AntTat 3/3 (see Dean, S. et al., Proc. Natl. Acad. Sci. USA, 2013, 110, 14741-14746), and T. equiperdum (see Stewart, M. L. et al., Eukaryot. Cell, 2010, 9, 336-343) were cultured in HMI-9 medium (Life Technologies, Paisley, United Kingdom) supplemented with 10% heat inactivated Foetal Bovine Serum (FBS (PAA Laboratories Linz, Austria)), 14 μL/L β-mercaptoethanol (BDH, Dorset, UK), and 3.0 g/L NaHCO3 (Sigma-Aldrich) and adjusted to pH 7.4. These cell lines were maintained at 37° C. in a humidified, 5% CO2 environment.
# A resazurin-based (Alamar blue) drug sensitivity assay was used to assess and compare the activity of standard trypanocides in the different cell lines investigated (see Gould, M. K. et al., Anal. Biochem., 2008, 382, 87-93). Briefly, 23 doubling dilutions of the test compound of the invention, starting at 100 μM, and a compound-free control were prepared in 100 μL medium in a 96-well white plate (Greiner Bio-one, Frickenhausen, Germany). The cells were adjusted to 2×10^4 cells/mL for T. b. brucei and T. equiperdum; 4×10^4 cells/mL for T. evansi; and 5×10^5 cells/mL for T. congolense in the appropriate medium. 100 μL of the adjusted cells was then added to the wells containing drug dilutions and incubated for 48 h under respective culture condition. Thereafter, 20 μL of 125 mg/mL resazurin sodium dye was added, and the plate was incubated for a further 24 h.
# [17] = tested on: T. equiperdum; assay: as above; conditions: Trypanosoma equiperdum, read-out: IC50 T. equiperdum
# [18] = SI, IC50 (μM)/MIC99 (μg/mL), HEK293 cytotoxicity
# [19] = SI, IC50 (μM)/MIC80 (μM), HEK293 cytotoxicity
Compound,inhibition at 20 µM [1],"T. vaginalis Selectivity Indices, Group ([2]; Alkyl Amidines and NH Pyrroles)",T. vaginalis Selectivity Index (SI) [2],IC50 [2],% Normalised Fluorescence with gDNA [3],% Normalised Fluorescence with polyAU RNA [4],MIC99 [5],MIC80 [6],MIC80 [7],MIC80 [8],MIC99 [9],MIC99 [10],inhibition at 20 µM [11],MIC99 [12],MIC99 [13],inhibition at 20 µM [14],"E. faecalis Selectivity Indices, Group [6]","S. aureus Selectivity Indices, Group [7, 19]",other results
"CC(C)NC(=N)CCNC(=O)c1cc(NC(=O)c2cc(NC(=O)c3ccc(/C=C/c4cnc5ccccc5c4)cc3)cn2C)cn1C [Ia21, (E)-N-(3-imino-3-(isopropylamino)propyl)-1-methyl-4-(1-methyl-4-(4-(2-(quinolin-3-yl)vinyl)benzamido)-1H-pyrrole-2-carboxamido)-1H-pyrrole-2-carboxamide]",25 to 50%,D (Group D: SI > 32),41,< 1 µM,3%,2%,> 50 µg/mL,< 5 µM,< 5 µM,> 100 µM,< 5 µg/mL,25 to 50 µg/mL,25 to 50%,5 to 25 µg/mL,5 to 25 µg/mL,> 50%,–,–,"C. auris Selectivity Indices, Group [10, 18]: B (Group B: 0.4 < SI <= 1)"
"CC/N=C(\N)CCNC(=O)c1cc(NC(=O)c2cc(NC(=O)c3ccc(/C=C/c4cnc5ccccc5c4)cc3)cn2C)cn1C [Ia14, N—((Z)-3-amino-3-(ethylimino)propyl)-1-methyl-4-(1-methyl-4-(4-((E)-2-(quinolin-3-yl)vinyl)benzamido)-1H-pyrrole-2-carboxamido)-1H-pyrrole-2-carboxamide]",< 10%,D (Group D: SI > 32),35,< 1 µM,2%,6%,5 to 25 µg/mL,< 5 µM,< 5 µM,> 100 µM,5 to 25 µg/mL,> 50 µg/mL,10 to 25%,> 50 µg/mL,> 50 µg/mL,–,D (D: SI > 10),D (D: SI > 10),"E. faecalis Selectivity Index (SI) [6]: 11; S. aureus Selectivity Index (SI) ([7]; SI, IC50 (μM)/MIC80 (μM), HEK293 cytotoxicity, numeric value): 44"
"CC(C)/N=C(\N)CCNC(=O)c1cc(NC(=O)c2cc(NC(=O)c3ccc(/C=C/c4ccc5nonc5c4)cc3)cn2C)cn1C [Ia13, N—((Z)-3-amino-3-(isopropylimino)propyl)-4-(4-(4-((E)-2-(benzo[c][1,2,5]oxadiazol-5-yl)vinyl)benzamido)-1-methyl-1H-pyrrole-2-carboxamido)-1-methyl-1H-pyrrole-2-carboxamide]",> 50%,C (Group C: 16 < SI <= 32),17,1 to 5 µM,2%,3%,5 to 25 µg/mL,< 5 µM,5 to 25 µM,> 100 µM,25 to 50 µg/mL,–,> 50%,–,> 50 µg/mL,25 to 50%,D (D: SI > 10),C (Group C: 5 < SI <= 10),E. faecalis Selectivity Index (SI) [6]: 12; IC50 [15]: 8 to 32 µM
"CN(C)c1ccc(/C=C/c2ccc(C(=O)Nc3c[nH]c(C(=O)Nc4c[nH]c(C(=O)NCCN5CCOCC5)c4)c3)cn2)cc1 [IIIb7, (E)-6-(4-(dimethylamino)styryl)-N-(5-((5-((2-morpholinoethyl)carbamoyl)-1H-pyrrol-3-yl)carbamoyl)-1H-pyrrol-3-yl)nicotinamide]",–,–,–,–,63%,44%,–,> 100 µM,5 to 25 µM,> 100 µM,–,–,–,–,–,10 to 25%,–,B (Group B: 3 < SI <= 5),–
"CC(C)=CCC/C(C)=C/CNC(=O)c1cc(NC(=O)c2cc(NC(=O)c3ccc(/C=C/c4cnc5ccccc5c4)cc3)cn2C)cn1C [IVa10, N—((E)-3,7-dimethylocta-2,6-dien-1-yl)-1-methyl-4-(1-methyl-4-(4-((E)-2-(quinolin-3-yl)vinyl)benzamido)-1H-pyrrole-2-carboxamido)-1H-pyrrole-2-carboxamide]",10 to 25%,–,–,5 to 50 µM,–,–,> 50 µg/mL,25 to 100 µM,5 to 25 µM,> 100 µM,5 to 25 µg/mL,–,> 50%,–,25 to 50 µg/mL,> 50%,–,–,–
"COCCOCCOCCNC(=O)c1cc(NC(=O)c2cc(NC(=O)c3ccc(/C=C/c4cnc5ccccc5c4)cc3)cn2C)cn1C [IVa8, (E)-N-(2-(2-(2-methoxyethoxy)ethoxy)ethyl)-1-methyl-4-(1-methyl-4-(4-(2-(quinolin-3-yl)vinyl)benzamido)-1H-pyrrole-2-carboxamido)-1H-pyrrole-2-carboxamide]",10 to 25%,–,–,5 to 50 µM,70%,94%,–,5 to 25 µM,5 to 25 µM,> 100 µM,–,–,10 to 25%,–,–,25 to 50%,–,–,"T. vaginalis Selectivity Indices, Group ([2]; Amides): B (Group B: 0.25 < SI <= 0.5)"
"CN(C)c1ccc(/C=C/c2ccc(C(=O)Nc3c[nH]c(C(=O)Nc4c[nH]c(C(=O)NCCC(=N)N)c4)c3)cn2)cc1 [IIIa9, (E)-N-(5-((5-((3-amino-3-iminopropyl)carbamoyl)-1H-pyrrol-3-yl)carbamoyl)-1H-pyrrol-3-yl)-6-(4-(dimethylamino)styryl)nicotinamide]",10 to 25%,–,–,–,16%,24%,< 5 µg/mL,5 to 25 µM,5 to 25 µM,25 to 100 µM,< 5 µg/mL,5 to 25 µg/mL,–,5 to 25 µg/mL,5 to 25 µg/mL,25 to 50%,C (Group C: 5 < SI <= 10),C (Group C: 5 < SI <= 10),"IC50 [16]: 0.1 to 1 µM; IC50 [17]: > 1 µM; SARS-CoV-2 Selectivity Indices, Group ([15]; SI, IC50 (μM)/IC50 (μM), HEK293 cytotoxicity, Alkyl Amidines and NH Pyrroles): D (Group D: SI > 25); SARS-CoV-2 Selectivity Index (SI) ([15]; SI, IC50 (μM)/IC50 (μM), HEK293 cytotoxicity, numeric value): 33; IC50 [15]: < 2 µM; C. glabrata Selectivity Indices, Group ([9]; SI, IC50 (μM)/MIC99 (μg/mL), HEK293 cytotoxicity, Alkyl Amidines and NH Pyrroles): C (Group C 20 < SI <= 50); C. auris Selectivity Indices, Group [10, 18]: D (Group D SI > 3); C. auris Selectivity Index (SI) ([10]; SI, IC50 (μM)/MIC99 (μg/mL), HEK293 cytotoxicity, numeric value): 6"
